Measured values reported in patent publication US11505558B1, “Antiviral heterocyclic compounds” (Enanta Pharmaceuticals, Inc., priority 2019, dated 2022).

What was measured:
[1] = test system: recombinant HMPV CAN97-83 (MPV-GFP1); assay: HMPV antiviral assay (MPV-GFP1 eGFP fluorescence in Vero E6 cells); format: cell-based; conditions: human metapneumovirus, Vero C1008, 120 h, read-out: HMPV EC50
Description: HMPV antiviral activity was evaluated using a recombinant version of HMPV CAN97-83 engineered to contain the coding sequence for enhanced green fluorescence protein (eGFP) in the 3′ end of the virus genome (MPV-GFP1, ViraTree). Vero E6 cells ([…]) were seeded at a density of 12,000 cells/100 μL/well into 96-well cell plates one day prior to the assay. On the day of screening, the cell culture medium was aspirated from the wells and cells were washed twice with serum-free Eagle's Modified Essential Medium (EMEM, ATCC #) containing 1% penicillin-streptomycin (Invitrogen) (SF-EMEM). Cell washes were performed by dispensing 100 μL SF-EMEM per well and immediately aspirating the wash medium from the well. Following the second wash step, serum-free OptiMEM (Invitrogen, Cat No.) (SF-OptiMEM) containing 0.5 μg/mL TPCK-Trypsin (VENDOR) and 1% penicillin-streptomycin was added to the cells at 50 μL/well. Compounds were added into the 96-well plates using a JANUS automated liquid handling system (VENDOR). Compounds were initially diluted 1:50 into an intermediate 96-well plate containing SF-OptiMEM prior to transfer to the assay plate (25 μL/well). Each of the test compounds were tested in duplicate wells at final concentrations starting from 8 μM or 2 μM using ½ stepwise dilutions for a total of 8 points. Virus infection was performed by preparing a working stock of MPV-GFP1 at a multiplicity of infection (MOI) equal to 0.05/25 μL and aliquoting 25 μL of virus inoculum to the compound and positive control wells. SF-OptiMEM was added (25 μL/well) to the appropriate wells to serve as a virus-free negative control for the assay. The final DMSO concentration of all wells is 0.5%. Plates were incubated at 32° C., 5% CO2 for 5 days.
After 5 days incubation, eGFP fluorescence intensity was measured at […] using a Spectramax i3X plate reader (VENDOR). Percent viral inhibition was calculated using the following equation: y=[[…]−(XQ/XP)]×100 Where XQ is the fluorescence intensity measured in a well containing recombinant MPV-GFP1-infected, compound-treated cells and XP is the average fluorescence intensity measured in the wells containing untreated cells infected with recombinant virus. EC50 values were then calculated by non-linear regression using a four parameter curve logistic equation. The curve fit model employed was XLFit Dose Response One Site Model 200: y=(A+(B/(1+((x/C)^D)))) Where A is the minimum y value, B is the maximum y value, C is the log EC50 value, and D is the slope factor. […] EC50 ranges are as follows: A<0.5 μM; B>0.5 μM.

[2] = test system: genotype A, "Long" strain RSV; assay: RSV-A assay (CPE, ATPlite readout in Hep-2 cells); format: cell-based; conditions: human respiratory syncytial virus, HEp-2, Hep-2 cells, genotype A "Long" strain RSV, MOI 0.1; read-out: Human RSV-A (“Long” strain) EC50
Procedure, shortened: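 Protection from RSV-induced cytopathic effect, measured as ATPlite luminescence after 5 days, gave EC50 values. Assay used genotype A Long strain at MOI 0.1 on Hep-2 cells seeded at 8,000/well in DMEM growth media with 10% FBS; compounds tested as 2-fold dilutions in duplicate.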

SMILES | EC50 [1] [nM] | EC50 [2] [nM]
C[C@]1(C(N)=O)COc2c1cc([C@@](O)(CNC(=O)c1ccc(OC3CC3)c(-c3cccc(C(F)(F)F)n3)c1)C(F)(F)F)nc2-c1ccc(F)cc1 [Example 110] | > 500 | < 200
C[C@]1(C(N)=O)COc2c1cc([C@@](O)(CNC(=O)c1ccc(OC3CC3)c(-c3cnccn3)c1)C(F)(F)F)nc2-c1ccc(F)cc1 [Example 114] | > 500 | < 200
C[C@]1(C(N)=O)COc2c1cc([C@@](O)(CNC(=O)c1ccc(OC3CC3)c(-c3ccncn3)c1)C(F)(F)F)nc2-c1ccc(F)cc1 [Example 116] | > 500 | < 200
C[C@]1(C(N)=O)COc2c1cc([C@@](O)(CNC(=O)c1ccc(OC3CC3)c(C3CC3)c1)C(F)(F)F)nc2-c1ccc(F)cc1 [Example 123] | > 500 | < 200
C[C@]1(C(N)=O)COc2c1cc([C@@](O)(CNC(=O)c1ccc(OC3CC3)c(-c3ncco3)c1)C(F)(F)F)nc2-c1ccc(F)cc1 [Example 124] | > 500 | < 200
Cc1ncc(-c2cc(C(=O)NC[C@](O)(c3cc4c(c(-c5ccc(F)cc5)n3)OC[C@]4(C)C(N)=O)C(F)(F)F)ccc2OC2CC2)s1 [Example 126] | > 500 | < 200
C[C@]1(C(N)=O)COc2c1cc([C@@](O)(CNC(=O)c1ccc(OC3CC3)c(-c3ncccn3)c1)C(F)(F)F)nc2-c1ccc(F)cc1 [Example 127] | > 500 | < 200
C[C@]1(C(N)=O)COc2c1cc([C@@](O)(CNC(=O)c1ccc(OC3CC3)c(N3CCC3)c1)C(F)(F)F)nc2-c1ccc(F)cc1 [Example 136] | > 500 | < 200
Cc1ncc(-c2cc(C(=O)NC[C@](O)(c3cc4c(c(-c5ccc(F)cc5)n3)OC[C@]4(C)C(N)=O)C(F)(F)F)ccc2OC2CC2)cn1 [Example 137] | < 500 | < 200
Cc1cnc(-c2ccc(C(=O)NC[C@](O)(c3cc4c(c(-c5ccc(F)cc5)n3)OC[C@]4(C)C(N)=O)C(F)(F)F)cc2OC2CC2)o1 [Example 179] | > 500 | < 200
Cc1ncoc1-c1ccc(C(=O)NC[C@](O)(c2cc3c(c(-c4ccc(F)cc4)n2)OC[C@]3(C)C(N)=O)C(F)(F)F)cc1OC1CC1 [Example 180] | > 500 | < 200
COc1cc(C(=O)NC[C@](O)(c2cc3c(c(-c4ccc(F)cc4)n2)OC[C@]3(C)C(N)=O)C(F)(F)F)ccc1-c1ocnc1C [Example 183] | > 500 | < 200
Cc1nc(-c2ccc(C(=O)NC[C@](O)(c3cc4c(c(-c5ccc(F)cc5)n3)OC[C@]4(C)C(N)=O)C(F)(F)F)cc2OC2CC2)co1 [Example 196] | > 500 | > 200
COc1cc(C(=O)NC[C@](C)(O)c2cc3c(c(-c4ccc(F)cc4)n2)OC[C@]3(C)C(N)=O)cc2cccnc12 [Example 219] | > 500 | < 200
C[C@]1(C(N)=O)COc2c1cc([C@@](O)(CNC(=O)c1cc(Cl)c3ncccc3c1)C(F)(F)F)nc2-c1ccc(F)cc1 [Example 221] | < 500 | < 200
COc1cc(C(=O)NC[C@](O)(c2cc3c(c(-c4ccc(F)cc4)n2)OC[C@]3(C)C(N)=O)C(F)(F)F)cc2ccc(C)nc12 [Example 222] | < 500 | < 200
Cc1ccc2cc(C(=O)NC[C@](O)(c3cc4c(c(-c5ccc(F)cc5)n3)OC[C@]4(C)C(N)=O)C(F)(F)F)cc(OC3CC3)c2n1 [Example 223] | < 500 | < 200
C[C@]1(C(N)=O)COc2c1cc([C@@](O)(CNC(=O)c1cc(OC3CC3)c3ncccc3c1)C(F)(F)F)nc2-c1ccccc1 [Example 228] | > 500 | < 200
C[C@]1(C(N)=O)COc2c1cc([C@@](O)(CNC(=O)c1ccc3nnccc3c1)C(F)(F)F)nc2-c1ccc(F)cc1 [Example 230] | > 500 | < 200
C[C@]1(C(N)=O)COc2c1cc([C@@](O)(CNC(=O)c1ccc3cnccc3c1)C(F)(F)F)nc2-c1ccc(F)cc1 [Example 232] | > 500 | < 200

SMILES | EC50 [1] [nM] | EC50 [2] [nM]
Cc1cnc2c(O)cc(C(=O)NC[C@](O)(c3cc4c(c(-c5ccc(F)cc5)n3)OC[C@]4(C)C(N)=O)C(F)(F)F)cc2c1 [Example 252] | > 500 | < 200
COc1cc(C(=O)NC[C@](O)(c2cc3c(c(-c4ccc(F)cc4)n2)OC[C@]3(C)C(N)=O)C(F)(F)F)cc2cc(C)cnc12 [Example 255] | < 500 | < 200
COc1cc(C(=O)NC[C@](O)(c2cc3c(c(-c4ccc(F)cc4)n2)OC[C@]3(C)C(N)=O)C2CC2)cc2cc(C)cnc12 [Example 256] | < 500 | < 200
COc1cc(C(=O)NC[C@](O)(c2cc3c(c(-c4ccc(F)c(Cl)c4)n2)OC[C@]3(C)C(N)=O)C(F)(F)F)cc2cc(C)cnc12 [Example 257] | < 500 | < 200
CCc1cnc2c(OC)cc(C(=O)NC[C@](O)(c3cc4c(c(-c5ccc(F)cc5)n3)OC[C@]4(C)C(N)=O)C(F)(F)F)cc2c1 [Example 262] | > 500 | < 200
C[C@](O)(CNC(=O)c1cc(OC2CC2)c2ncccc2c1)c1cc2c(c(-c3ccc(F)cc3)n1)OC[C@]2(C)C(N)=O [Example 265] | < 500 | < 200
C[C@]1(C(N)=O)COc2c1cc([C@@](O)(CNC(=O)c1ccc3ncccc3c1)C(F)(F)F)nc2-c1ccc(F)cc1 [Example 269] | < 500 | < 200
C[C@]1(C(N)=O)COc2c1cc([C@@](O)(CNC(=O)c1cc(OC3CC3)c3ncccc3c1)C1CC1)nc2-c1ccc(F)cc1 [Example 280] | < 500 | < 200
C[C@]1(C(N)=O)COc2c1cc([C@@](O)(CNC(=O)c1cc(Cl)c3ncccc3c1)C1CC1)nc2-c1ccc(F)cc1 [Example 281] | < 500 | < 200
C[C@@H](O)COc1cc(C(=O)NC[C@](O)(c2cc3c(c(-c4ccc(F)cc4)n2)OC[C@]3(C)C(N)=O)C(F)(F)F)cc2cccnc12 [Example 287] | > 500 | > 200
C[C@@H](O)COc1ccc(C(=O)NC[C@](O)(c2cc3c(c(-c4ccc(F)cc4)n2)OC[C@]3(C)C(N)=O)C(F)(F)F)cc1OC1CC1 [Example 289] | > 500 | < 200
COc1cc(C(=O)NC[C@](O)(c2cc3c(c(-c4ccc(F)cc4)n2)OC[C@]3(C)C(N)=O)C(F)(F)F)ccc1OC[C@@H](C)O [Example 290] | < 500 | < 200
C[C@]1(C(N)=O)COc2c1cc([C@@](O)(CNC(=O)c1cc(Nc3ccncc3)c3ncccc3c1)C(F)(F)F)nc2-c1ccc(F)cc1 [Example 336] | > 500 | < 200
C[C@]1(C(N)=O)COc2c1cc([C@@](O)(CNC(=O)c1cc(Nc3ncccn3)c3ncccc3c1)C(F)(F)F)nc2-c1ccc(F)cc1 [Example 337] | > 500 | < 200
C[C@]1(C(N)=O)COc2c1cc([C@@](O)(CNC(=O)c1cc(Nc3cccnc3)c3ncccc3c1)C(F)(F)F)nc2-c1ccc(F)cc1 [Example 339] | > 500 | < 200
C[C@]1(C(N)=O)COc2c1cc([C@@](O)(CNC(=O)c1cc(Nc3ncncn3)c3ncccc3c1)C(F)(F)F)nc2-c1ccc(F)cc1 [Example 340] | > 500 | < 200
C[C@]1(C(N)=O)COc2c1cc([C@@](O)(CNC(=O)c1cc(Nc3cnccn3)c3ncccc3c1)C(F)(F)F)nc2-c1ccc(F)cc1 [Example 341] | > 500 | < 200
C[C@]1(C(N)=O)COc2c1cc([C@@](O)(CNC(=O)c1cc(Nc3cncnc3)c3ncccc3c1)C(F)(F)F)nc2-c1ccc(F)cc1 [Example 342] | > 500 | < 200
C[C@]1(C(N)=O)COc2c1cc([C@@](O)(CNC(=O)c1cc(-c3cccnc3)c3ncccc3c1)C(F)(F)F)nc2-c1ccc(F)cc1 [Example 350] | > 500 | < 200
COc1cc(C(=O)NC[C@](O)(c2cc3c(c(-c4ccc(F)cc4)n2)OC[C@]3(C)C(N)=O)C(F)(F)F)cc2ccncc12 [Example 361] | > 500 | < 200
